Data reported in article PMC10341764 (International Journal of Molecular Sciences, 2023).

Tests used:
[1] = system: adrenals; conditions: cited from earlier work
[2] = set-up: method as in PMID 12735237; conditions: cited from earlier work
[3] = HPLC/MS/MS analysis of F12511 content in plasma and tissues; assay type: in vivo; conditions: mouse, brain / plasma, intravenous, 46 mg F12511/kg; 12 to 24 h time point
Method: We also monitored the ACAT enzyme activities in various tissues 4 to 48 h after a single IV injection of nanoparticle F at 46 mg/kg.
Both compounds were dissolved in DMSO at 10 mg/mL and stored at −40 °C. Subsequent working dilutions were made in fresh acetonitrile (ACN) daily. Calibrators and quality control measures were used in the appropriate matrix: C57BL/6 plasma (anticoagulant: K3-EDTA, Innovative Research), brain homogenate, liver homogenate, and adrenal gland homogenate. The tissues were homogenized at 0.1 g/mL in diH2O by using stainless steel beads and a Next Advance Bullet Blender. All the samples (50 µL) were protein precipitated, with 150 µL of 10 ng/mL CP113,818 in ACN acting as an internal standard and added via vortex for 1 min and centrifugation for 5 min at 15,000 rpm. In total, 150 µL of supernatant was transferred to amber autosampler vials, and 10 µL was injected on the LC-MS/MS system. […] The heated ESI source was operated with a spray voltage of 4500 V, vaporizer temperature at 500 °C, capillary temperature at 250 °C, and sheath and auxiliary gases at 30 and 15 arbitrary units, respectively.

[4] = target: ACAT2; conditions: cited from earlier work
[5] = system: ACAT enzyme; assay: ACAT enzyme activity in tissue homogenates after IV injection (mixed micelles assay); conditions: judged by ACAT inhibition in brain
Method: Based on this finding, we treated the animals with the inhibitor by IV injection, perfused the mice after the animals were treated (to remove blood contamination from the tissues), then prepared the tissue homogenates, and monitored the ACAT enzyme activity in these tissues by using the mixed micelles enzyme assay described previously [24, 39, 49, 50] (the mixed micelles assay measures the ACAT enzyme activity independent of endogenous lipid composition because it reconstitutes the ACAT protein in mixed micelles with a defined lipid composition).

[6] = target: ACAT1; conditions: cited from earlier work
[7] = system: 5xFAD mouse model; set-up: method as in PMID 37157042; conditions: oral feeding for 60 days; cited from earlier work
[8] = set-up: method as in PMID 31646241; conditions: cited from earlier work
[9] = system: ACAT; set-up: method as in PMID 8937424, PMID 12536672; conditions: cited from earlier work
[10] = system: cortical regions; set-up: method as in PMID 23427273; conditions: fed to mice for seven days; cited from earlier work
[11] = system: mouse model for EOAD; set-up: method as in PMID 15473963; conditions: slow-releasing pellet implanted underneath the mouse skin; cited from earlier work

For `CCCCCCCCCCCCS[C@H](C(=O)Nc1cc(C)c(O)c(C)c1C)c1ccccc1` [F12511, (S)-2′,3′,5′-trimethyl-4′-hydroxy-alpha-dodecylthio-alpha-phenylacetanilide], the “adrenal toxicity in animals” value [1] is given as “did not cause adrenal toxicity in animals”, the “clinical phase 1 safety tests” value [2] is given as “passed clinical phase 1 safety tests” and the Kp [3] is given as 0.005 to 0.01. The Ki [4] was 110 nM and the “permeability to the mouse brain as part of nanoparticles” value [5] was “permeable to the mouse brain”.
In the case of `CC(C)c1cc(C(C)C)c(CC(=O)NS(=O)(=O)Oc2c(C(C)C)cccc2C(C)C)c(C(C)C)c1` [CI1011, 2,6-bis(1-methylethyl)phenyl ((2,4,6-tris(1-methylethyl)phenyl)acetyl)sulfamate], the “clinical phase 1 safety tests” value [2] is given as “passed clinical phase 1 safety tests”, the Ki [6] is given as 20000 nM and the “amyloidopathy and other AD-like pathologies” value [7] is given as “ameliorated amyloidopathy and other AD-like pathologies”. The Ki [4] was 20000 nM.
For `CSc1cc(C)nc(SC)c1NC(=O)CN1CCN(CCSc2nc3ccccc3[nH]2)CC1.Cl.Cl` [K604, 2-[4-[2-(Benzimidazol-2-ylthio)ethyl]piperazin-1yl]-N-[2,4-bis(methylthio)-6-methyl-3-pyridyl]acetamide dihydrochloride], the “clinical phase 1 safety tests” value [2] is given as “passed clinical phase 1 safety tests” and the “permeability to the mouse brain” value [8] is given as “impermeable to the mouse brain”.
For `CCCCCCCCC(SCCCCCC)C(=O)Nc1c(SC)cc(C)nc1SC` (single isomer, unassigned) [enantiomeric isomer of CP113,818], the “activity as ACAT inhibitor” value [9] is given as “inactive as an ACAT inhibitor” and the adrenal toxicity [1] is given as “causes severe adrenal toxicity”.
For `O=C(O)C[C@H]1CC[C@H](c2ccc(NC(=O)c3nnc(Nc4ccc(F)c(F)c4)o3)cc2)CC1` [AZD3988], the “fine vacuolation in cortical regions” value [10] is listed as “significant reduction in fine vacuolation in cortical regions”.
For `CCCCCCCC[C@H](SCCCCCC)C(=O)Nc1c(SC)cc(C)nc1SC` [CP113,818], the “adrenal accumulation and toxicity” value ([1]; preclinical trial, animals) is given as “accumulated in adrenals in animals and caused toxicity”, the Ki [6] is given as 20 nM and the Ki [4] is given as 20 nM. For the same compound, the amyloidopathy [11] was “effective in suppressing amyloidopathy”.
